# Experimental data from PubChem BioAssay AID248 (DTP/NCI, 2004).
# Where “and” joins values, the source holds several entries; their conditions need not be identical. Equal values may be shown once. Inconclusive results and toxic doses are left out.
# System: L1210 leukemia ip in BDF1 mice, survival T/C
# Test: NCI In Vivo Anticancer Drug Screen. Data for tumor model L1210 Leukemia (intraperitoneal) in B6D2F1 (BDF1) mice
# Details: higher = longer survival
# Procedure, shortened: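 Mice bearing the transplanted tumor received compound or vehicle. Survival of the treated group was divided by that of the vehicle-treated control group to give the ratio.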
# [1] = endpoint: mean survival time, dose: 100.0 mg/kg/injection, schedule: Q04DX003 (ip), vehicle: saline
compound,measurement,setting,value
O=C1C=CN(C2OC(CO)C(O)C2O)C(=O)C1 (stereo not given),T/C,"endpoint: mean survival time, dose: 0.75 mg/kg/injection, schedule: Q01DX009 (ip), vehicle: saline",117 % of control
same,T/C,"endpoint: mean survival time, dose: 1.5 mg/kg/injection, schedule: Q01DX009 (ip), vehicle: saline",117 % of control
same,T/C,"endpoint: mean survival time, dose: 4.8 mg/kg/injection, schedule: Q01DX009 (ip), vehicle: saline",120 % of control
same,T/C,"endpoint: mean survival time, dose: 7.8 mg/kg/injection, schedule: Q01DX005 (ip), vehicle: other",107 % of control
same,T/C,"endpoint: mean survival time, dose: 15.75 mg/kg/injection, schedule: Q01DX005 (ip), vehicle: other",116 % of control
same,T/C,"endpoint: mean survival time, dose: 22.0 mg/kg/injection, schedule: Q01DX009 (ip), vehicle: saline",124 % of control
same,T/C,"endpoint: mean survival time, dose: 31.25 mg/kg/injection, schedule: Q01DX005 (ip), vehicle: other",123 % of control
same,T/C,"endpoint: mean survival time, dose: 62.5 mg/kg/injection, schedule: Q01DX005 (ip), vehicle: other",124 % of control
same,T/C,"endpoint: mean survival time, dose: 100.0 mg/kg/injection, schedule: Q01DX001 (ip), vehicle: saline",105 % of control
same,T/C,[1],108 % of control
same,T/C,"endpoint: mean survival time, dose: 112.0 mg/kg/injection, schedule: Q03HX024 (ip), vehicle: saline",176 % of control
same,T/C,"endpoint: mean survival time, dose: 200.0 mg/kg/injection, schedule: Q01DX001 (ip), vehicle: saline",114 % of control
same,T/C,"endpoint: mean survival time, dose: 200.0 mg/kg/injection, schedule: Q04DX003 (ip), vehicle: saline",119 % of control
same,T/C,"endpoint: mean survival time, dose: 400.0 mg/kg/injection, schedule: Q01DX001 (ip), vehicle: saline",105 % of control
same,T/C,"endpoint: mean survival time, dose: 400.0 mg/kg/injection, schedule: Q01DX009 (ip), vehicle: saline",115 % of control
same,T/C,"endpoint: mean survival time, dose: 400.0 mg/kg/injection, schedule: Q04DX003 (ip), vehicle: saline",116 % of control
same,T/C,"endpoint: median survival time, dose: 6.25 mg/kg/injection, schedule: Q01DX009 (ip), vehicle: saline",122 % of control
same,T/C,"endpoint: median survival time, dose: 12.5 mg/kg/injection, schedule: Q01DX009 (ip), vehicle: saline",122 % of control
same,T/C,"endpoint: median survival time, dose: 16.0 mg/kg/injection, schedule: Q03HX008 (ip), vehicle: saline",105 % of control
same,T/C,"endpoint: median survival time, dose: 16.0 mg/kg/injection, schedule: Q03HX016 (ip), vehicle: saline",103 % of control
same,T/C,"endpoint: median survival time, dose: 26.0 mg/kg/injection, schedule: Q03HX024 (ip), vehicle: saline",150 % of control
same,T/C,"endpoint: median survival time, dose: 32.0 mg/kg/injection, schedule: Q01DX009 (sc), vehicle: saline",118 % of control
same,T/C,"endpoint: median survival time, dose: 32.0 mg/kg/injection, schedule: Q03HX008 (ip), vehicle: saline",106 % of control
same,T/C,"endpoint: median survival time, dose: 32.0 mg/kg/injection, schedule: Q03HX016 (ip), vehicle: saline",101 % of control
same,T/C,"endpoint: median survival time, dose: 64.0 mg/kg/injection, schedule: Q01DX009 (sc), vehicle: saline",123 % of control
same,T/C,"endpoint: median survival time, dose: 64.0 mg/kg/injection, schedule: Q03HX008 (ip), vehicle: saline",103 % of control
same,T/C,"endpoint: median survival time, dose: 64.0 mg/kg/injection, schedule: Q03HX016 (ip), vehicle: saline",103 % of control
same,T/C,"endpoint: median survival time, dose: 64.0 mg/kg/injection, schedule: Q04DX003 (ip), vehicle: saline",103 % of control
same,T/C,"endpoint: median survival time, dose: 74.0 mg/kg/injection, schedule: Q01DX009 (oral), vehicle: saline",116 % of control
same,T/C,"endpoint: median survival time, dose: 110.0 mg/kg/injection, schedule: Q01DX009 (oral), vehicle: saline",100 % of control
same,T/C,"endpoint: median survival time, dose: 128.0 mg/kg/injection, schedule: Q01DX001 (ip), vehicle: saline",98 % of control
same,T/C,"endpoint: median survival time, dose: 128.0 mg/kg/injection, schedule: Q01DX009 (ip), vehicle: saline",156 % of control
same,T/C,"endpoint: median survival time, dose: 128.0 mg/kg/injection, schedule: Q01DX009 (oral), vehicle: saline",111 % of control
same,T/C,"endpoint: median survival time, dose: 128.0 mg/kg/injection, schedule: Q03HX008 (ip), vehicle: saline",108 % of control
same,T/C,"endpoint: median survival time, dose: 128.0 mg/kg/injection, schedule: Q03HX016 (ip), vehicle: saline",110 % of control
same,T/C,"endpoint: median survival time, dose: 128.0 mg/kg/injection, schedule: Q04DX003 (ip), vehicle: saline",104 % of control
same,T/C,"endpoint: median survival time, dose: 128.0 mg/kg/injection, schedule: Q04DX003 (oral), vehicle: saline",104 % of control and 110 % of control
same,T/C,"endpoint: median survival time, dose: 128.0 mg/kg/injection, schedule: Q04DX003 (sc), vehicle: saline",112 % of control
same,T/C,"endpoint: median survival time, dose: 128.0 mg/kg/injection, schedule: Q08DX002 (ip), vehicle: saline",94 % of control
same,T/C,"endpoint: median survival time, dose: 164.0 mg/kg/injection, schedule: Q01DX009 (oral), vehicle: saline",111 % of control
same,T/C,"endpoint: median survival time, dose: 170.0 mg/kg/injection, schedule: Q04DX003 (ip), vehicle: saline",111 % of control
same,T/C,"endpoint: median survival time, dose: 248.0 mg/kg/injection, schedule: Q01DX009 (oral), vehicle: saline",100 % of control
same,T/C,"endpoint: median survival time, dose: 256.0 mg/kg/injection, schedule: Q01DX001 (ip), vehicle: saline",105 % of control
same,T/C,"endpoint: median survival time, dose: 256.0 mg/kg/injection, schedule: Q01DX009 (ip), vehicle: saline",180 % of control
same,T/C,"endpoint: median survival time, dose: 256.0 mg/kg/injection, schedule: Q01DX009 (oral), vehicle: saline",107 % of control and 110 % of control
same,T/C,"endpoint: median survival time, dose: 256.0 mg/kg/injection, schedule: Q03HX008 (ip), vehicle: saline",116 % of control
same,T/C,"endpoint: median survival time, dose: 256.0 mg/kg/injection, schedule: Q03HX016 (ip), vehicle: saline",122 % of control
same,T/C,"endpoint: median survival time, dose: 256.0 mg/kg/injection, schedule: Q04DX003 (ip), vehicle: saline",112 % of control
same,T/C,"endpoint: median survival time, dose: 256.0 mg/kg/injection, schedule: Q04DX003 (oral), vehicle: saline",117 % of control and 123 % of control
same,T/C,"endpoint: median survival time, dose: 256.0 mg/kg/injection, schedule: Q04DX003 (sc), vehicle: saline",120 % of control
same,T/C,"endpoint: median survival time, dose: 256.0 mg/kg/injection, schedule: Q08DX002 (ip), vehicle: saline",97 % of control
same,T/C,"endpoint: median survival time, dose: 260.0 mg/kg/injection, schedule: Q04DX003 (ip), vehicle: saline",111 % of control
same,T/C,"endpoint: median survival time, dose: 400.0 mg/kg/injection, schedule: Q01DX009 (ip), vehicle: saline",155 % of control
same,T/C,"endpoint: median survival time, dose: 512.0 mg/kg/injection, schedule: Q01DX001 (ip), vehicle: saline",100 % of control
same,T/C,"endpoint: median survival time, dose: 512.0 mg/kg/injection, schedule: Q01DX009 (oral), vehicle: saline",97 % of control and 100 % of control
same,T/C,"endpoint: median survival time, dose: 512.0 mg/kg/injection, schedule: Q04DX003 (ip), vehicle: saline",122 % of control
same,T/C,"endpoint: median survival time, dose: 512.0 mg/kg/injection, schedule: Q04DX003 (oral), vehicle: saline",105 % of control
same,T/C,"endpoint: median survival time, dose: 512.0 mg/kg/injection, schedule: Q04DX003 (sc), vehicle: saline",119 % of control
same,T/C,"endpoint: median survival time, dose: 512.0 mg/kg/injection, schedule: Q08DX002 (ip), vehicle: saline",95 % of control
same,T/C,"endpoint: median survival time, dose: 580.0 mg/kg/injection, schedule: Q04DX003 (ip), vehicle: saline",111 % of control
same,T/C,"endpoint: median survival time, dose: 600.0 mg/kg/injection, schedule: Q01DX009 (ip), vehicle: saline",110 % of control
same,T/C,"endpoint: median survival time, dose: 1024.0 mg/kg/injection, schedule: Q01DX001 (ip), vehicle: saline",101 % of control
same,T/C,"endpoint: median survival time, dose: 1024.0 mg/kg/injection, schedule: Q01DX009 (oral), vehicle: saline",95 % of control
same,T/C,"endpoint: median survival time, dose: 1024.0 mg/kg/injection, schedule: Q08DX002 (ip), vehicle: saline",106 % of control
same,T/C,"endpoint: median survival time, dose: 2048.0 mg/kg/injection, schedule: Q01DX001 (ip), vehicle: saline",111 % of control
same,T/C,"endpoint: median survival time, dose: 2048.0 mg/kg/injection, schedule: Q08DX002 (ip), vehicle: saline",119 % of control
O=C(CCN1CCCCCCC1)c1cccc([N+](=O)[O-])c1,T/C,"endpoint: mean survival time, dose: 25.0 mg/kg/injection, schedule: Q04DX003 (ip), vehicle: saline",97 % of control
same,T/C,"endpoint: mean survival time, dose: 50.0 mg/kg/injection, schedule: Q01DX009 (ip), vehicle: saline",101 % of control
same,T/C,"endpoint: mean survival time, dose: 50.0 mg/kg/injection, schedule: Q04DX003 (ip), vehicle: saline",104 % of control
same,T/C,"endpoint: mean survival time, dose: 100.0 mg/kg/injection, schedule: Q01DX009 (ip), vehicle: saline",91 % of control
same,T/C,[1],97 % of control and 105 % of control
CN(N=O)C(=O)NCc1c[nH]c(=O)[nH]c1=O,T/C,"endpoint: mean survival time, dose: 6.0 mg/kg/injection, schedule: Q01DX Z (ip), vehicle: carboxymethylcellulose (CMC)",106 % of control
same,T/C,"endpoint: mean survival time, dose: 12.0 mg/kg/injection, schedule: Q01DX Z (ip), vehicle: carboxymethylcellulose (CMC)",101 % of control
same,T/C,"endpoint: mean survival time, dose: 25.0 mg/kg/injection, schedule: Q01DX Z (ip), vehicle: carboxymethylcellulose (CMC)",100 % of control
same,T/C,"endpoint: mean survival time, dose: 50.0 mg/kg/injection, schedule: Q01DX Z (ip), vehicle: carboxymethylcellulose (CMC)",121 % of control
